Results taken from patent US9605013B2, “Derivatives of hemin with antibacterial and antiviral activity” (OBSCHESTVO S OGRANICHENNOI OTVETSTVENNOSTIYU …, priority 2011, dated 2017).

Columns and labels:
Type in all cases: cell-based
[1] = test system: Staphylococcus aureus No. 5 (MRSA); assay: Antibacterial specific activity, twofold dilutions, visual growth evaluation; conditions: St. aur No. 5 MRSA; 36° C., 24 hours
Description: (§1) The specific activity of compounds also was determined against bacteria strains such as Staphylococcus aureus No. 25923 ATCC (American Type Culture Collection); Staphylococcus aureus No. 100 KC; Staphylococcus epidermidis No. 533; Enterococcus faecalis No. 559; Enterococcus faecium No. 569, Staphylococcus aureus No. 5 (MRSA), Staphylococcus aureus No. 3797 (MRSA). Staphylococcus aureus was cultured on the Trypticase Soy Agar (BBL) commercially available dry medium. Enterococcus faecalis was cultured on the Columbia Agar (BBL) commercially available dry medium. These media were sterilized by autoclaving at 121° C. for 15 min. Bacterial inoculum was constant and was 5×10^5 CFU/ml (10^5 CFU/0.2 ml). For water-soluble compounds, wells from 2nd through 8th were added with the solvent (water) in an amount of 15 μL per well, then the 1st well was added with 30 μL of the stock solution of the tested compound in […] with a concentration of […], and the concentration was adjusted to 0.007×10^3 M by serial twofold dilutions. A 10-μL portion was taken from every well, and 190 μL of the bacterial culture (10^5 CFU) was added per well. For DMSO-soluble compounds, wells from 2nd through 8th were added with the solvent (DMSO) in an amount of 10 μL per well, then the 1st well was added with 20 μL of the stock solution of the tested compound in […] with a concentration of […], and the concentration was adjusted to 0.039×10^3 M by serial twofold dilutions. A 2-μL portion was taken from each well, and 198 μL of the bacterial culture (10^5 CFU) was added per well.
(§2) The control comprised wells free of tested compounds (culture growth control). In addition, purity control of nutritional media and solvents was used. Plates were incubated in a thermostat at 36° C. for 24 hours.
(§3) Culture growth was evaluated visually by comparison of how microorganisms grew in the presence of tested compounds and in the absence of them. MIC was set equal to the last dilution of a tested agent which suppressed bacterial culture growth.

[2] = test system: Staphylococcus aureus No. 3797 (MRSA); assay: as above; conditions: St. aur No. 3797 MRSA; 36° C., 24 hours
Description: as §1, §2, §3

[3] = test system: Micrococcus luteus BKM Ac-2230; assay: Antibacterial activity, serial dilutions in liquid MH medium
Description: (§4) The antibacterial activity of the compounds was determined against strains of gram-positive bacteria such as Staphylococcus aureus 209P, Enterococcus faecalis BKM B-871, Micrococcus luteus BKM Ac-2230, Bacillus subtilis BKM B-501, and gram-negative bacteria such as Pseudomonas aeruginosa PAO1 and Escherichia coli KM MGU C-600. BKM strains were acquired from the All-Russia Collection of Microorganisms at the Institute for Biochemistry and Physiology of Microorganisms, Russian Academy of Sciences. Strain Staphylococcus aureus 209P was acquired from the Collection of Microorganisms at the Department of microbiology of the Faculty of Biology of Lomonosov Moscow State University, and Pseudomonas aeruginosa PAO1 was acquired from the Collection of Microorganisms at the Institute of Bioorganic Chemistry of the Russian Academy of Sciences.
(§5) The main parameters characterizing the antibacterial activity are the minimal inhibitory concentration (MIC) and minimal bactericidal concentration (MBC). […] MBC is the least concentration that causes the death of all cells.
(§6) MIC was quantified by inhibiting culture growth in a liquid medium with serial dilutions of compounds using a modified procedure [Amsterdam, D., 1966. “Susceptibility testing of antimicrobials in liquid media,” pp. 52-111. In Loman, V., ed. Antibiotics in laboratory medicine, 4th ed. Williams and Wilkins, Baltimore].
(§7) Bacteria were cultured and tested on an MH liquid medium (Mueller-Hinton medium: a dry extract of beef broth, 4 g/L; starch, 1.5 g/L; casein hydrolyzate, 17.5 g/L; Sigma-Fluka Catalog No. 70192) at 37° C., 100% humidity, and under stirring. Cultures (within 4 to 7 passages after thawing) in the exponential growth phase were used for tests.
(§8) All tested compounds absorb light at 595 nm, a wavelength used for evaluating bacterial culture growth. Therefore, a correction for absorption was applied in estimating the optical density of bacterial suspensions for each compound with account for its concentration in the well. Bacterial growth inhibition (GI) as percentage after 20 hours of incubating cells with compounds was derived from the optical density (A) measured in every well at a wavelength of 595 nm using the equation: GIi=[(Act−Ac0)−(Ait−Ai0)]×100/(Act−Ac0), (1) wherein the subscripts have the following meanings: i denotes the well number, c denotes a control well with bacteria whereto the tested compound is not inserted, 0 refers to the measurement taken immediately once the tested compound was inserted to the well, and t refers to the measurement taken 20 hours after the compound was inserted.
(§9) The protocol for the determination of experimental antibacterial activity of the tested compounds was as follows. A cryovial with the test strain culture in a medium with 7% DMSO stored in liquid nitrogen, was rapidly defrosted, and 1.5 mL of the fresh MH medium was inoculated with 100 μL of the cell suspension. Cells were grown for one day at 37° C. and stirred on an orbital shaker at 150 rpm. The morphologic features of the strain and the absence of contamination with foreign bacteria were verified by: (a) inoculation on an agarized (15 g/L agar) MH medium and observation of the shape and color of the grown colonies and (b) examination of characteristic morphologic features under a microscope (Mikmed-2, LOMO, Russia) equipped with a 40× objective lens. Further, the bacteria were cultured in 1 mL of the liquid MH medium at 37° C. under stirring. The cells were reseeded every day. Cell cultures were used in tests starting with 3rd reseeding and ending with 6th one.
(§10) For testing, 5 μL of a bacterial suspension in the stationary growth phase was transferred to 1 mL of a sterile MH medium and incubated until the exponential growth phase was attained (3 to 5 h, 37° C., stirring at 150 rpm). To estimate the microorganism concentration, the optical density (A) of the resulting bacterial culture was measured at a wavelength of 595 nm. […]

[4] = test system: Bacillus subtilis BKM B-501; assay: as above; conditions: MH medium, 20 h, 37° C., 100% growth inhibition
Description: as §4, §5, §6, §7, §8, §9, §10

[5] = test system: Vancomycin-resistant Enterococcus faecium 569; assay: Antibacterial specific activity, twofold dilutions, visual growth evaluation; conditions: Vancomycin-resistant E. faecium 569; 36° C., 24 hours
Description: as §1, §2, §3

[6] = test system: Staphylococcus epidermidis No. 533; assay: as above; conditions: S. epidermis 533; 36° C., 24 hours
Description: as §1, §2, §3

[7] = test system: Staphylococcus aureus No. 25923 ATCC; assay: as above; conditions: S. aureus 25923; 36° C., 24 hours
Description: as §1, §2, §3

[8] = test system: Escherichia coli 4300; assay: as above; conditions: E. coli 4300; 36° C., 24 hours
Description: [Worded in the source for another organism; this organism is reported under the same test.] as §1, §2, §3

[9] = test system: Staphylococcus aureus No. 100 KC; assay: as above; conditions: S. aureus 100 KC; 36° C., 24 hours
Description: as §1, §2, §3

[10] = test system: Enterococcus faecalis No. 559; assay: as above; conditions: E. faecalis 559; 36° C., 24 hours
Description: as §1, §2, §3

[11] = test system: Herpes Simplex Virus type 2 strain G (No. VR-734 ATCC); assay: Antiviral activity, virus cytopathogenic action in Vero cells; set-up: key: 0: CPA (cytopathogenic action) is not detected; 1: up to 25% virus-infected monolayer; from 25% to 50%; 3: from 50% to 75%; 4: from 75% to 100%; conditions: 48 hours
Description: (§11) […] used in the study were used Herpes Simplex Virus type 1 (the Collection of Microorganisms at the Scientific Research Institute of Virology, strain EC), Herpes Simplex Virus type 2 strain G (No. VR-734 ATCC), and human cytomegalovirus strain AD169 (No. VR-538 ATCC). Herpes Simplex viruses type 1 and type 2 were cultured in Vero cells. The cells were incubated in MEM Eagle growth medium (MEM, BioloT, St-Petersburg, 1.3.3) supplemented with 10% fetal bovine serum (BioloT, St-Petersburg, 1.3.12) in Sanyo MCO-15AC gas-flow thermostat (37° C., 5% CO2) (Tokyo, Japan). A seed dose was 2×10^5 cells/ml in the starting inoculum or 2×10^4 cells/well. Herpes Simplex viruses were cultured under the same conditions in the MEM medium without serum (maintenance medium). Starting viral titers were 10^7 TCID50/ml.
(§12) For DMSO-soluble preparations, stock solutions were prepared in a concentration of 10 mM in DMSO. For water-soluble preparations, a stock solution prepared had the same concentration in the MEM medium (Minimal Essential Medium) for cell cultures. To control cytotoxicity (see below), the stock solution was diluted in the medium to a concentration of 100 μM and ten-fold serial dilutions of the preparations were made in the MEM medium (for DMSO-soluble compounds—in the MEM medium comprising 3% DMSO). The following concentrations of the preparations were used in the study of […]: if toxicity was not found, the concentrations of 100 μM preparations were 100, 10 and 1 μM; if toxicity was detected, the concentrations of 100 μM preparations were 10, 1, and 0.1 μM. Acyclovir (10 μg/ml) was used for Herpes Simplex viruses of both types as a reference preparation to control the viral model validity.
(§13) To study antiviral activity, plate wells with a cell monolayer were added with the preparations in an amount of 0.1 ml/well. To compensate a reduction in the concentration of the preparations, which takes place in the following addition of viruses, twofold concentrations of compounds (i.e. 200, 20 and 2 or 20, 2 and 0.2 μM for […] concentrations of 100 μM preparations, respectively) were used, incubated for an hour and then were infected with the examined 0.1 ml/well viruses in doses 1, 10 and 100 TCID50 (50% tissue infectious dose).
(§14) The virus-specific cytogenic action was manifested in an increase in the size of cells, their rounding, and detachment from a substrate. These morphological characteristics served as their marked difference from the cells subjected to a toxic action of high concentrations of the examined preparations. The latter acquired spindle-like shape, lost contacts with neighboring cells of the monolayer, and their boundaries became more distinct.
(§15) Intensity of the virus-specific changes in the cells were semi-quantified using a 4-score system: 0—CPA (cytopathogenic action) is not detected; 1—up to 25% virus-infected monolayer; 2—from 25% to 50%; 3—from 50% to 75%; and 4—from 75% to 100%. The antiviral activity of a compound was evaluated according to their ability to reduce the manifestation of cytopathogenic action in the plate wells compared to the control values. Differences with the control values by 1 score and more were considered to be significant.

[12] = test system: Herpes Simplex Virus type 1 strain EC; assay: as above; set-up: key: 0: CPA (cytopathogenic action) is not detected; 1: up to 25% virus-infected monolayer; from 25% to 50%; 3: from 50% to 75%; 4: from 75% to 100%; conditions: 48 hours
Description: as §11, §12, §13, §14, §15

Row | Compound | MIC [1] | MIC [2] | MIC [5] | MIC [6] | MIC [7] | MIC [8] | MIC [9] | MIC [10] | other results
1 | 6,7-bis-(Methyl Ester N^α—(N^G-Nitro)Arginyl)-Protohemin (IX) [III] | 25 µM | 25 µM |  |  |  |  |  |  | MIC ([3]; MH medium, 20 h, 37° C., 100% growth inhibition): 1.6 µM; MBC ([3]; no colonies on agarized MH medium): 6.3 µM; MIC [4]: 12.5 µM
2 | 6,7-bis-[(Amide N^α-L-Arginyl)-L-Seryl]-Protohemin (IX) [XXIII] | >50.0 µM | >50.0 µM | >50.0 µM | >50.0 µM | >50.0 µM | >50.0 µM | >50.0 µM | >50.0 µM | 
3 | 6,7-bis-[(Amide N^α-L-Seryl)-L-Arginyl]-Protohemin (IX) [XX] | 3.12 µM | 1.3 µM | 6.25 µM | 1.56 µM | 1.3 µM | >50.0 µM | 0.65 µM | 1.56 µM | 
4 | 6,7-bis-[(Diamide N^α-L-Seryl)-L-glutamyl]-Protohemin (IX) [XII] |  |  |  |  |  |  |  |  | manifestation of the virus CPA ([11]; HSV-2, virus dose 1, concentration 0.1 μM): 0.5 scores; manifestation of the virus CPA ([11]; HSV-2, virus dose 1, concentration 1 μM): 0.5 scores; manifestation of the virus CPA ([11]; HSV-2, virus dose 1, concentration 10 μM): 0^1; manifestation of the virus CPA ([11]; HSV-2, virus dose 10, concentration 0.1 μM): 2 (from 25% to 50%); manifestation of the virus CPA ([11]; HSV-2, virus dose 10, concentration 1 μM): 1.5 scores; manifestation of the virus CPA ([11]; HSV-2, virus dose 10, concentration 10 μM): 1^1 (up to 25% virus-infected monolayer); manifestation of the virus CPA ([11]; HSV-2, virus dose 100, concentration 0.1 μM): 3 (from 50% to 75%); manifestation of the virus CPA ([11]; HSV-2, virus dose 100, concentration 1 μM): 3 (from 50% to 75%); manifestation of the virus CPA ([11]; HSV-2, virus dose 100, concentration 10 μM): 3 (from 50% to 75%)
5 | 6,7-bis-[(Methyl Ester N^α-L-Arginyl)-L-Seryl]-Protohemin (IX) [XXI] | 0.65 µM | 1.56 µM | 6.25 µM | 0.78 µM | 0.39 µM | >50.0 µM | 0.65 µM | 1.56 µM | 
6 | Nc1nc2c(ncn2COCCO)c(=O)[nH]1 [Acyclovir, reference compound] |  |  |  |  |  |  |  |  | manifestation of the virus CPA ([11]; HSV-2, virus dose 1, 10 μg/ml): 0^1; manifestation of the virus CPA ([11]; HSV-2, virus dose 10, 10 μg/ml): 0^1; manifestation of the virus CPA ([11]; HSV-2, virus dose 100, 10 μg/ml): 0^1; manifestation of the virus CPA ([12]; HSV-1, virus dose 1, 10 μg/ml): 0^1; manifestation of the virus CPA ([12]; HSV-1, virus dose 10, 10 μg/ml): 0^1; manifestation of the virus CPA ([12]; HSV-1, virus dose 100, 10 μg/ml): 0^1
